Measured values from ChEMBL document CHEMBL1201862, “PubChem BioAssay data set” (2004).
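Exposure lasted 48 hours, with cells grown in 96-well plates and compounds tested at five concentrations. Abbreviation: GI50, concentration required for 50% inhibition of growth.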 Activity calls are given as the source filed them. No stated cut-off is given here; in the data, active = GI50 up to about 1.1 µM and inactive = higher.

Columns and labels:
Experiment in all cases: NCI tumour cell line growth inhibition, 48 h
OVCAR-8 = tested on: OVCAR-8
HCT-15 = tested on: HCT-15
MDA-MB-435 = tested on: MDA-MB-435
RXF 393 = tested on: RXF 393
COLO 205 = tested on: COLO 205
SF-268 = tested on: SF-268
OVCAR-4 = tested on: OVCAR-4
OVCAR-3 = tested on: OVCAR-3
UO-31 = tested on: UO-31
RPMI-8226 = tested on: RPMI-8226
SK-OV-3 = tested on: SK-OV-3
DU-145 = tested on: DU-145
SK-MEL-2 = tested on: SK-MEL-2
SN12C = tested on: SN12C
NCI-H522 = tested on: NCI-H522
SNB-19 = tested on: SNB-19
HOP-62 = tested on: HOP-62
SF-295 = tested on: SF-295
SK-MEL-28 = tested on: SK-MEL-28
CCRF-CEM = tested on: CCRF-CEM
A549 = tested on: A549
A498 = tested on: A498
786-0 = tested on: 786-0
NCI-H23 = tested on: NCI-H23
HT-29 = tested on: HT-29
PC-3 = tested on: PC-3
Hs-578T = tested on: Hs-578T
MDA-MB-231 = tested on: MDA-MB-231
SNB-75 = tested on: SNB-75
KM12 = tested on: KM12
HL-60 = tested on: HL-60
HCC 2998 = tested on: HCC 2998
Malme-3M = tested on: Malme-3M
ACHN = tested on: ACHN
HCT-116 = tested on: HCT-116
SF-539 = tested on: SF-539
IGROV-1 = tested on: IGROV-1
MDA-N = tested on: MDA-N
BT-549 = tested on: BT-549
UACC-62 = tested on: UACC-62
EKVX = tested on: EKVX
NCI-H226 = tested on: NCI-H226
OVCAR-5 = tested on: OVCAR-5
U-251 = tested on: U-251
MCF7 = tested on: MCF7
HOP-92 = tested on: HOP-92
CAKI-1 = tested on: CAKI-1
TK-10 = tested on: TK-10
LOX IMVI = tested on: LOX IMVI
M14 = tested on: M14
SW-620 = tested on: SW-620
NCI-H460 = tested on: NCI-H460
UACC-257 = tested on: UACC-257
MOLT-4 = tested on: MOLT-4
NCI/ADR-RES = tested on: NCI/ADR-RES
SR = tested on: SR
SK-MEL-5 = tested on: SK-MEL-5
K562 = tested on: K562
T47D = tested on: T47D

SMILES: O=C1c2cccc3cc([N+](=O)[O-])cc(c23)C(=O)N1CCCN1CCN(CCCNc2ccc3ncn4c5ccccc5c(=O)c2c34)CC1
- GI50 (OVCAR-8): < 0.005 µM (active)
- GI50 (HCT-15): < 0.005 µM
- GI50 (MDA-MB-435): < 0.005 µM (active)
- GI50 (RXF 393): < 0.005 µM (active)
- GI50 (COLO 205): < 0.005 µM (active)
- GI50 (SF-268): < 0.005 µM (active)
- GI50 (OVCAR-4): 0.00547 µM (active)
- GI50 (OVCAR-3): 0.0358 µM (active)
- GI50 (UO-31): < 0.005 µM (active)
- GI50 (RPMI-8226): < 0.005 µM (active)
- GI50 (SK-OV-3): 0.0198 µM (active)
- GI50 (DU-145): < 0.005 µM (active)
- GI50 (SK-MEL-2): 0.0191 µM (active)
- GI50 (SN12C): < 0.005 µM (active)
- GI50 (NCI-H522): < 0.005 µM (active)
- GI50 (SNB-19): < 0.005 µM (active)
- GI50 (HOP-62): < 0.005 µM (active)
- GI50 (SF-295): < 0.005 µM (active)
- GI50 (SK-MEL-28): 0.0562 µM (active)
- GI50 (CCRF-CEM): < 0.005 µM (active)
- GI50 (A549): < 0.005 µM (active)
- GI50 (A498): < 0.005 µM (active)
- GI50 (786-0): < 0.005 µM (active)
- GI50 (NCI-H23): < 0.005 µM (active)
- GI50 (HT-29): < 0.005 µM (active)
- GI50 (PC-3): < 0.005 µM (active)
- GI50 (Hs-578T): < 0.005 µM (active)
- GI50 (MDA-MB-231): < 0.005 µM (active)
- GI50 (SNB-75): < 0.005 µM (active)
- GI50 (KM12): < 0.005 µM (active)
- GI50 (HL-60): < 0.005 µM (active)
- GI50 (HCC 2998): < 0.005 µM (active)
- GI50 (Malme-3M): < 0.005 µM (active)
- GI50 (ACHN): < 0.005 µM (active)
- GI50 (HCT-116): < 0.005 µM (active)
- GI50 (SF-539): < 0.005 µM (active)
- GI50 (IGROV-1): < 0.005 µM (active)
- GI50 (MDA-N): < 0.005 µM (active)
- GI50 (BT-549): < 0.005 µM (active)
- GI50 (UACC-62): < 0.005 µM (active)
- GI50 (EKVX): < 0.005 µM (active)
- GI50 (NCI-H226): < 0.005 µM (active)
- GI50 (OVCAR-5): 0.00867 µM (active)
- GI50 (U-251): < 0.005 µM (active)
- GI50 (MCF7): < 0.005 µM (active)
- GI50 (HOP-92): 0.013 µM (active)
- GI50 (CAKI-1): < 0.005 µM (active)
- GI50 (TK-10): < 0.005 µM (active)
- GI50 (LOX IMVI): < 0.005 µM (active)
- GI50 (M14): < 0.005 µM (active)
- GI50 (SW-620): < 0.005 µM (active)
- GI50 (NCI-H460): < 0.005 µM (active)
- GI50 (UACC-257): < 0.005 µM (active)
- GI50 (MOLT-4): < 0.005 µM (active)
- GI50 (NCI/ADR-RES): < 0.005 µM (active)

SMILES: CC(=O)NNC(=O)C1CCCCN1 (stereo unspecified)
- GI50 (OVCAR-8): > 100 µM (inactive)
- GI50 (HCT-15): > 100 µM
- GI50 (MDA-MB-435): > 100 µM (inactive)
- GI50 (RXF 393): > 100 µM (inactive)
- GI50 (SR): > 100 µM (inactive)
- GI50 (COLO 205): > 100 µM (inactive)
- GI50 (SF-268): > 100 µM (inactive)
- GI50 (OVCAR-4): > 100 µM (inactive)
- GI50 (OVCAR-3): > 100 µM (inactive)
- GI50 (RPMI-8226): > 100 µM (inactive)
- GI50 (SK-OV-3): > 100 µM (inactive)
- GI50 (DU-145): > 100 µM (inactive)
- GI50 (SK-MEL-2): > 100 µM (inactive)
- GI50 (SN12C): > 100 µM (inactive)
- GI50 (NCI-H522): > 100 µM (inactive)
- GI50 (SNB-19): > 100 µM (inactive)
- GI50 (SK-MEL-5): > 100 µM (inactive)
- GI50 (HOP-62): > 100 µM (inactive)
- GI50 (SF-295): > 100 µM (inactive)
- GI50 (SK-MEL-28): > 100 µM (inactive)
- GI50 (CCRF-CEM): > 100 µM (inactive)
- GI50 (A549): > 100 µM (inactive)
- GI50 (A498): > 100 µM (inactive)
- GI50 (K562): > 100 µM (inactive)
- GI50 (786-0): > 100 µM (inactive)
- GI50 (NCI-H23): > 100 µM (inactive)
- GI50 (HT-29): > 100 µM (inactive)
- GI50 (PC-3): > 100 µM (inactive)
- GI50 (Hs-578T): > 100 µM (inactive)
- GI50 (MDA-MB-231): > 100 µM (inactive)
- GI50 (KM12): > 100 µM (inactive)
- GI50 (HL-60): > 100 µM (inactive)
- GI50 (Malme-3M): > 100 µM (inactive)
- GI50 (ACHN): > 100 µM (inactive)
- GI50 (HCT-116): > 100 µM (inactive)
- GI50 (SF-539): > 100 µM (inactive)
- GI50 (IGROV-1): > 100 µM (inactive)
- GI50 (MDA-N): > 100 µM (inactive)
- GI50 (BT-549): > 100 µM (inactive)
- GI50 (EKVX): > 100 µM (inactive)
- GI50 (NCI-H226): > 100 µM (inactive)
- GI50 (OVCAR-5): > 100 µM (inactive)
- GI50 (U-251): > 100 µM (inactive)
- GI50 (MCF7): > 100 µM (inactive)
- GI50 (HOP-92): > 100 µM (inactive)
- GI50 (CAKI-1): > 100 µM (inactive)
- GI50 (TK-10): > 100 µM (inactive)
- GI50 (LOX IMVI): > 100 µM (inactive)
- GI50 (M14): > 100 µM (inactive)
- GI50 (SW-620): > 100 µM (inactive)
- GI50 (NCI-H460): > 100 µM (inactive)
- GI50 (UACC-257): > 100 µM (inactive)
- GI50 (MOLT-4): > 100 µM (inactive)

SMILES: Nc1nc2c(c(=O)[nH]1)C(c1ccc(Cl)cc1)C=C(c1ccccc1)N2 (stereo unspecified)
- GI50 (HCT-15): 34.7 µM
- GI50 (MDA-MB-435): 15 µM (inactive)
- GI50 (RXF 393): 43.6 µM (inactive)
- GI50 (SR): 19.4 µM (inactive)
- GI50 (COLO 205): 19.1 µM (inactive)
- GI50 (OVCAR-4): 21.6 µM (inactive)
- GI50 (UO-31): 92.7 µM (inactive)
- GI50 (RPMI-8226): 18.4 µM (inactive)
- GI50 (SK-OV-3): 23.8 µM (inactive)
- GI50 (DU-145): 29.4 µM (inactive)
- GI50 (SN12C): 19.9 µM (inactive)
- GI50 (SNB-19): 37.9 µM (inactive)
- GI50 (SK-MEL-5): 19.9 µM (inactive)
- GI50 (SF-295): 26.7 µM (inactive)
- GI50 (SK-MEL-28): 22.6 µM (inactive)
- GI50 (CCRF-CEM): 24.8 µM (inactive)
- GI50 (A549): 25.9 µM (inactive)
- GI50 (A498): 54.5 µM (inactive)
- GI50 (K562): 20.6 µM (inactive)
- GI50 (786-0): 25.4 µM (inactive)
- GI50 (NCI-H23): 24.4 µM (inactive)
- GI50 (T47D): 21.8 µM (inactive)
- GI50 (MDA-MB-231): 20.9 µM (inactive)
- GI50 (HL-60): 30.8 µM (inactive)
- GI50 (HCC 2998): 15.3 µM (inactive)
- GI50 (ACHN): 75.3 µM (inactive)
- GI50 (HCT-116): 16.3 µM (inactive)
- GI50 (MDA-N): 18.6 µM (inactive)
- GI50 (BT-549): 35.1 µM (inactive)
- GI50 (UACC-62): 27.4 µM (inactive)
- GI50 (U-251): 17.8 µM (inactive)
- GI50 (HOP-92): 20.4 µM (inactive)
- GI50 (CAKI-1): 91.4 µM (inactive)
- GI50 (TK-10): 51.6 µM (inactive)
- GI50 (LOX IMVI): 45.3 µM (inactive)
- GI50 (SW-620): 18.1 µM (inactive)
- GI50 (NCI-H460): 20.4 µM (inactive)
- GI50 (UACC-257): 54.8 µM (inactive)
